# In patent US20230265524A1, “IMMUNOGENIC RETROELEMENTS AND THEIR USE IN CANCER THERAPY” (UNIVERSITY HEALTH NETWORK, priority 2020, published 2023):
# Tests used:
# Format in all cases: cell-based, human
# [1] = system: interferon stimulated genes (ISG15, DDX58 and IRF7); assay: interferon response / ISG expression by RNA-seq GSEA and qRT-PCR in patient-derived CRC cells
# Description: H, Geneset Enrichment Analysis showing an enrichment of the geneset ‘Hallmark_Interferon_Alpha_Response’ in ADAR1^KD 5-AZA-treated cells compared to ADAR1^WT 5-AZA-CdR treated cells.
# I, Interferon-responsive geneset enrichment score in mock-treated ADAR1^WT, 5-AZA-CdR-treated ADAR1^WT, mock-treated ADAR1^KD, and 5-AZA-CdR-treated ADAR1^KD conditions. Samples were collected 5, 14, and 24 days post-treatment.
# B, Kinetics of interferon stimulated genes (ISG15, DDX58 and IRF7) relative expression in ADAR1^WT (Black) and ADAR1^KD (Gray) patient-derived colorectal cancer cells (CRCs) treated with 5-AZA-CdR analyzed by qRT-PCR. Data are mean±s.e.m. (n=3 from three independent experiments). *P<0.05, **P<0.01, ****P<0.0001, Sidak-corrected two-way ANOVA.
# C, Interferon-responsive gene expression in ADAR1^WT mock-treated (MT), 5-AZA-CdR treated, ADAR1^KD NT and ADAR1^KD p(I:C) transfected samples collected 5 days, 14 days and 24 days post-treatment, measured by RNA-seq.
# D, Kinetics of interferon stimulated genes (ISG15, DDX58 and IRF7) relative expression in ADAR1^WT (Black) and ADAR1^KD (Gray) patient-derived CRCs transfected with p(I:C), analyzed by qRT-PCR. Data are mean±s.e.m. **P<0.01, ****P<0.0001, Sidak-corrected two-way ANOVA.
# F, Interferon stimulated genes (ISG15, DDX58 and IRF7) relative expression in CTRL (LUC) (Black) and ADAR1^p150CE (Gray) patient-derived CRCs treated with 5-AZA-CdR, analyzed by qRT-PCR. Data are mean±s.e.m. **P<0.01, ***P<0.001, Sidak-corrected two-way ANOVA.
# G, IFN enrichment score in CTRL(LUC) Mock-treated, 5-AZA-CdR treated, ADAR1-p150 overexpressing NT and ADAR1-p150 overexpressing 5-AZA-CdR treated samples collected 5 days post-treatment and measured by RNA-seq.
# (§1) Based on these findings, we hypothesized that ADAR1 depletion would synergize with the viral mimicry response induced by DNMTi treatment. To assess how ADAR1 depletion affects 5-AZA-CdR treated samples, we performed RNA-seq analyses in patient-derived CRC cells. […] As a molecular read-out of dsRNA pattern recognition activation, we measured MAVS aggregation in the mitochondrial fraction of cell lysates^34. […] Taken together, our findings establish that ADAR1 acts as a negative feedback loop, restricting the viral mimicry response induced by DNMTi treatment in cancer cells.
# [2] = system: HT29 colorectal cancer cell lines; assay: ISG relative expression in HT29 cells; conditions: HT29, ADAR1 KD vs WT, 300 nM for 5 days
# Procedure: D) Interferon-stimulated genes (MDA5, ISG15 and DDX58) relative expression in ADAR1^WT and ADAR1^KD HT29 colorectal cancer cell lines treated with 300 nM 5-AZA-CdR for 5 days. Data are mean±s.e.m. (n=3 from three independent experiments). *P<0.05, **P<0.01, ***P<0.001, ****P<0.0001, Tukey-corrected two-way ANOVA.
# as §1
# [3] = system: LIM1215 colorectal cancer cell lines; assay: ISG relative expression in LIM1215 cells; conditions: LIM1215, ADAR1 KD vs WT, 300 nM for 5 days
# Procedure: B) Interferon-stimulated genes (MDA5, IRF7 and DDX58) relative expression in ADAR1^WT and ADAR1^KD LIM1215 colorectal cancer cell lines treated with 300 nM 5-AZA-CdR for 5 days.
# as §1
smiles,measurement,setting,value
Nc1ncn([C@H]2C[C@H](O)[C@@H](CO)O2)c(=O)n1 [5-AZA-CdR],type I interferon response (GSEA),"[1]; ADAR1-depleted vs wild-type samples, both treated with 5-AZA-CdR",the most enriched pathway
same,persistence of enhanced interferon/ISG response,"[1]; ADAR1-depleted vs wild-type, after initial treatment",persisted as long as twenty-four days after initial treatment
same,viral mimicry (expression of ISGs and dsRNA formation),[1]; CRC cells overexpressing ADAR1p150,rescues the ability of 5-AZA-CdR to induce viral mimicry
same,expression of IFN stimulated genes (ISGs),[2],enhanced upon ADAR1 depletion
same,expression of IFN stimulated genes (ISGs),[3],enhanced upon ADAR1 depletion
